Measurements: US6245780A, “Tetrahydroisoquinolinyl-indole derivatives for the treatment of depression” (American Home Products Corp, priority 2000, dated 2001)
Where two headings read alike, the source gives them in different places.

Legend:
human 5-HT1A receptor = target: T1, human 5-HT1A receptor (Homo sapiens, UniProt P08908); experiment: human 5-HT1A receptor binding, [3H]8-OH-DPAT radioligand, membranes of 5-HT1A.CHO cells; settings: for inhibition at 1 µM: 1 uM compound, value in parentheses, read-out: 5-HT1A % inh @ 1 uM
T1 construct: expressed in transfected cells; host or cells: Chinese hamster ovary cells (5-HT1A.CHO)
T1 sequence (P08908 1-422): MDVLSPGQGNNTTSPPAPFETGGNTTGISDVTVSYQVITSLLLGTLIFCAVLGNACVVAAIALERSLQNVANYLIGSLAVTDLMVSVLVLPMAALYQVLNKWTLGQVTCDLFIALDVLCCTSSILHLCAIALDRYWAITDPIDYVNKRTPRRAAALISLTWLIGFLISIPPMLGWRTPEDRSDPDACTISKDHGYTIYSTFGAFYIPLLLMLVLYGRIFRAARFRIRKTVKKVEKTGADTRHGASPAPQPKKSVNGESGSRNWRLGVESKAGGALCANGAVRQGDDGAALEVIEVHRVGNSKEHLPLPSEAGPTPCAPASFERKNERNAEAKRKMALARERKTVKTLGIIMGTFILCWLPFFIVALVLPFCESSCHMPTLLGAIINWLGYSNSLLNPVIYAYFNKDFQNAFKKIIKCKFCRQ
Protocol: (§1) The PCR cloning of the human 5-HT1A receptor subtype from a human genomic library has been described previously by Chanda et al., Mol. Pharmacol., 43:516 (1993). A stable Chinese hamster ovary cell line expressing the human 5-HT1A receptor subtype (5-HT1A.CHO cells) was employed throughout this study. Cells were maintained in DMEM supplemented with 10% fetal calf serum, non-essential amino acids and penicillin/streptomycin.
Cells were grown to 95-100% confluency as a monolayer before membranes were harvested for binding studies. Cells were gently scraped from the culture plates, transferred to centrifuge tubes, and washed twice by centrifugation (2000 rpm for 10 min., 4° C.) in buffer (50 mM Tris; pH 7.5). The resulting pellets were aliquoted and maintained at -80° C. On the day of assay, the cells were thawed on ice, and resuspended in buffer. Studies were conducted using [^3 H]8-OH-DPAT as the radioligand. The binding assay was performed in 96 well microtiter plates in a final total volume of 250 μL of buffer. Comparison experiments were performed by using 7 concentrations of unlabelled drug and a final ligand concentration of 1.5 nM. Non-specific binding was determined in the presence of 10 μM 5HT. Saturation analysis was conducted by using [^3 H]8-OH-DPAT at concentrations ranging from 0.3-30 nM. Following a 30 minute incubation at room temperature, the reaction was terminated by the addition of ice cold buffer and rapid filtration using a M-96 Brandel Cell Harvester (Gaithersburg, Md.) through a GF/B filter presoaked for 30 minutes in 0.5% polyethyleneimine.

5-HT1A cloned receptor = target: T2, 5-HT1A cloned receptor (Homo sapiens, UniProt P08908); experiment: [35S]-GTPγS binding assay, 5-HT1A cloned receptor membrane fragments; format: biochemical; settings: maximum agonist response defined by excess 8-OH-DPAT; value in parentheses; read-out: GTPgS % EMax
T2 construct: expressed in transfected cells; host or cells: Chinese hamster ovary cells (5-HT1A.CHO)
T2 sequence (P08908 1-422): T1 sequence (P08908 1-422)
Description: as §1
The [^35 S]-GTPγS binding assay was similar to that used by Lazareno and Birdsall, Br. J. Pharmacol. 109:1120 (1993). Briefly, 5-HT1A cloned receptor membrane fragments (as used for 5-HT1A receptor binding assays) were stored at -70° C. When needed, membranes were rapidly thawed, centrifuged at 40,000×g for 10 minutes and resuspended at 4° C. for 10 minutes in assay buffer (25 mM HEPES, 3 mM MgCl2, 100 mM NaCl, 1 mM EDTA, 10 uM GDP, […], pH 8.0). These membranes were then incubated for 30 min at 30° C. with [^35 S]GTPgS (1 nM) in the presence of vehicle, test compound (one to eight concentrations), or excess 8-OH-DPAT to define maximum agronist response. All reactions were terminated by the addition of ice cold Tris buffer followed by rapid filtration using a Tom Tech® filtration device to separate bound from free [^35 S]GTPgS. Agonists produced an increase in the amount of [^35 S]GTPgS bound whereas antagonists produced no increase in binding. Bound radioactivity was counted and analyzed as above.

serotonin transporter = target: T3, serotonin transporter (Rattus norvegicus, UniProt P31652); experiment: affinity for the serotonin transporter (ST), 3H-paroxetine, rat frontal cortical membranes; format: binding, rat (male Sprague-Dawley); settings: 3H-paroxetine 0.1 nM, 60 min, 25° C.
T3 construct: frontal cortical membranes prepared from male Sprague-Dawley rats; from tissue; host or cells: rat (male Sprague-Dawley) frontal cortex membranes
T3 sequence (P31652 whole entry): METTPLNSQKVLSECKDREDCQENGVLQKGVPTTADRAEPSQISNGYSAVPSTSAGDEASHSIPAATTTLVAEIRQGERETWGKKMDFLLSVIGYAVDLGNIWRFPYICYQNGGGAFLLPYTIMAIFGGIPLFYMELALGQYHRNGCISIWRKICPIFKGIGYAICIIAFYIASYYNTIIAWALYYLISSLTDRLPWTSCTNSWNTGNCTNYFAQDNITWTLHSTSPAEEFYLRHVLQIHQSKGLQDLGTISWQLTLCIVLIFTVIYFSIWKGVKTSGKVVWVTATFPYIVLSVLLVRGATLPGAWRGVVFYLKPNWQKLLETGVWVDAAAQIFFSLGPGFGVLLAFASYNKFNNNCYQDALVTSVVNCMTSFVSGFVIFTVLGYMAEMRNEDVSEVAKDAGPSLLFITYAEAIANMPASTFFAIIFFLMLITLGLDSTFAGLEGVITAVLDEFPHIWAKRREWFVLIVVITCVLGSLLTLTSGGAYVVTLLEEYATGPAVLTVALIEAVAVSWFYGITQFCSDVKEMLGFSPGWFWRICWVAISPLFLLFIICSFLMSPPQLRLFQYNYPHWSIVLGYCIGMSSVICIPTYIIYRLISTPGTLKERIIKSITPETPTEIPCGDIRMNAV
Protocol: A protocol similar to that used by Cheetham et al., Neuropharmacol., 32:737 (1993) was used to determine the affinity of compounds for the serotonin transporter. Briefly, frontal cortical membranes prepared from male Sprague-Dawley rats were incubated with ^3 H-parsoxetinc (0.1 nM) for 60 min at 25° C. All tubes also contained either vehicle, test compound (one to eight concentrations), or a saturating concentration of fluoxetine (10 μM) to define […]. All reactions were terminated by the addition of ice cold Tris buffer followed by rapid filtration using a Tom Tech filtration device to separate bound from free ^3 H-paroxetine. Bound radioactivity was quantitated using a Wallac 1205 Beta Plate® counter. Nonlinear regression analysis was used to determine IC50 values which were converted to Ki values using the method set forth in Cheng and Prusoff, Biochem. Pharmacol., 22:3099 (1973) ([…].

[1] = [3H]8-OH-DPAT, 1.5 nM, 5-HT1A.CHO membranes, read-out: 5-HT1A Ki

| SMILES | inhibition at 1 µM (human 5-HT1A receptor; [3H]8-OH-DPAT) | Ki (human 5-HT1A receptor) | Emax (5-HT1A cloned receptor) | Ki (serotonin transporter) | Ki (human 5-HT1A receptor; [1]) |
| --- | --- | --- | --- | --- | --- |
| COc1ccc2c(c1)CN([C@H]1CC[C@@H](c3c[nH]c4ccc(C#N)cc43)CC1)CC2 [Example 1a, 3-[(1,4-cis)-4-(7-Methoxy-3,4-dihydro-1H-isoquinolin-2-yl)-cyclohexyl]-1H-indole-5-carbonitrile] | 26% |  |  |  |  |
| COc1ccc2c(c1)CCN([C@H]1CC[C@H](c3c[nH]c4ccc(C#N)cc43)CC1)C2 [Example 3b, 3-[(1,4-trans)-4-(6-Methoxy-3,4-dihydro-1H-isoquinolin-2-yl)-cyclohexyl]-1H-indole-5-carbonitrile] |  | 300 nM | 0% |  |  |
| N#Cc1ccc2[nH]cc([C@H]3CC[C@@H](N4CCc5ccccc5C4)CC3)c2c1 [Example 5a, 3-[(1,4-cis)-4-(3,4-Dihydro-1H-isoquinolin-2-yl)-cyclohexyl]-1H-indole-5-carbonitrile] | 0% |  |  | 1.3 nM |  |
| COc1ccc2c(c1)CN([C@H]1CC[C@H](c3c[nH]c4ccc(C#N)cc43)CC1)CC2 [Example 1b, 3-[(1,4-trans)-4-(7-Methoxy-3,4-dihydro-1H-isoquinolin-2-yl)-cyclohexyl]-1H-indole-5-carbonitrile] | 48% |  |  |  |  |
| COc1ccc2c(c1)CCN(CCCc1c[nH]c3ccc(F)cc13)C2 [Example 7, 2-[3-(5-Fluoro-1H-indol-3-yl)-propyl]-6-methoxy-1,2,3,4-tetrahydroisoquinoline] |  |  | 100% | 1.4 nM | 288 nM |
| COc1cccc2c1CCN(CCCc1c[nH]c3ccc(F)cc13)C2 [Example 6, 2-[3-(5-Fluoro-1H-indol-3-yl)-propyl]-5-methoxy-1,2,3,4-tetrahydroisoquinoline] |  |  | 23% | 1.9 nM | 243 nM |
| Fc1ccc2[nH]cc(CCCN3CCc4ccccc4C3)c2c1 [Example 8, 2-[3-(5-Fluoro-1H-indol-3-yl)-propyl]-1,2,3,4-tertrahydroisoquinoline] | 48% |  | 13% | 4.85 nM |  |

Continued, in another order:

| inhibition at 1 µM (human 5-HT1A receptor; [3H]8-OH-DPAT) | SMILES | Ki (human 5-HT1A receptor) | Emax (5-HT1A cloned receptor) | Ki (serotonin transporter) | Ki (human 5-HT1A receptor; [1]) |
| --- | --- | --- | --- | --- | --- |
| 21% | COc1ccc2c(c1)CCN([C@H]1CC[C@@H](c3c[nH]c4ccc(C#N)cc43)CC1)C2 [Example 3a, 3-[(1,4-cis)-4-(6-Methoxy-3,4-dihydro-1H-isoquinolin-2-yl)-cyclohexyl]-1H-indole-5-carbonitrile] |  |  |  |  |
| 10% | N#Cc1ccc2[nH]cc([C@H]3CC[C@H](N4CCc5ccccc5C4)CC3)c2c1 [Example 5b, 3-[(1,4-trans)-4-(3,4-Dihydro-1H-isoquinolin-2-yl)-cyclohexyl]-1H-indole-carbonitrile] |  |  |  |  |
| 7% | COc1cccc2c1CCN([C@H]1CC[C@@H](c3c[nH]c4ccc(C#N)cc43)CC1)C2 [Example 4a, 3-[(1,4-cis)-4-(5-Methoxy-3,4-dihydro-1H-isoquinolin-2-yl)-cyclohexyl]-1H-indole-5-carbonitrile] |  | 12% |  |  |
| 46% | COc1cccc2c1CN([C@H]1CC[C@H](c3c[nH]c4ccc(C#N)cc43)CC1)CC2 [Example 2b, 3-[(1,4-trans)-4-(8-Methoxy-3,4-dihydro-1H-isoquinolin-2-yl)-cyclohexyl]-1H-indole-5-carbonitrile] |  |  |  |  |
| 47% | COc1cccc2c1CCN([C@H]1CC[C@H](c3c[nH]c4ccc(C#N)cc43)CC1)C2 [Example 4b, 3-[(1,4-trans)-4-(5-Methoxy-3,4-dihydro-1H-isoquinolin-2-yl)-cyclohexyl]-1H-indole-5-carbonitrile] |  | 33% |  |  |
| 14% | COc1cccc2c1CN([C@H]1CC[C@@H](c3c[nH]c4ccc(C#N)cc43)CC1)CC2 [Example 2a, 3-[(1,4-cis)-4-(8-Methoxy-3,4-dihydro-1H-isoquinolin-2-yl)-cyclohexyl]-1H-indole-5-carbonitrile] |  |  |  |  |
